In the first data set the test system is Meloidogyne incognita.
Experiment: not given
Type of data set: in vivo. The following applies: 336 h, 20 ppm. As to the method: Meloidogyne incognita - test
To produce a suitable preparation of active compound, 1 part by weight of active compound is mixed with the stated amount of solvent, and the concentrate is diluted with emulsifier-containing water to the desired concentration.
Vessels are filled with sand, a solution of the active ingredient, a suspension containing eggs and larvae of Meloidogyne incognita and salad seeds. The salad seeds germinate and the seedlings grow. Galls develop in the roots.
After 14 days the nematicidal activity is determined on the basis of the percentage of gall formation. 100% means that no galls were found; 0% means that the number of galls found on the roots of the treated plants was equal to that in untreated control plants.
For the molecule `Cc1nc(C(=O)N(C2CC2)S(=O)(=O)c2ccc(Cl)c(C(F)(F)F)c2)cs1` [compound 69], the “nematicidal activity determined on the basis of the percentage of gall formation” value was 80%.

In the case of `O=C(c1cccnc1)N(C1CC1)S(=O)(=O)c1ccc(Cl)c(C(F)(F)F)c1` [compound 638], the “nematicidal activity determined on the basis of the percentage of gall formation” value turned out to be 100%.

Test system in another data set: not listed separately
The data set is described as follows: logP by HPLC on reversed-phase column (C 18), EEC Directive 79/831 Annex V.A8, Method A (0.1% aqueous phosphoric acid / acetonitrile, 43°C). Type of data set: physicochemical. The note with it: c18 reversed-phase hplc; LogP method A: HPLC reversed-phase C 18, 43°C, 0.1% aqueous phosphoric acid / acetonitrile. As to the method: Calibration was carried out using unbranched alkan-2-ones (having 3 to 16 carbon atoms) with known logP values (determination of the logP values by the retention times using linear interpolation between two successive alkanones).
A word on the chromatographic logP: it is lipophilicity estimated from chromatographic retention. In the case of `Cc1nc(C(=O)N(C2CC2)S(=O)(=O)c2ccc(Cl)c(C(F)(F)F)c2)cs1` [compound 69], the chromatographic logP was determined as 3.63.

`Cn1cc(C(=O)N(C2CC2)S(=O)(=O)c2ccccc2Cl)c(C(F)(F)F)n1` [compound 200]: the chromatographic logP worked out at 2.71.

For the molecule `Cc1c(C(=O)N(C2CC2)S(=O)(=O)c2ccccc2Cl)cnn1-c1ccccc1` [compound 201], the chromatographic logP came out at 2.97.

In turn, `Cn1nc(C(F)(F)F)c(C(=O)N(C2CC2)S(=O)(=O)c2ccccc2Cl)c1Cl` [compound 208] registered a chromatographic logP of 3.27.

The molecule `Cc1nn(C)c(F)c1C(=O)N(C1CC1)S(=O)(=O)c1cccc(Cl)c1Cl` [compound 210] returned a chromatographic logP of 2.77.

`COc1nn(C)cc1C(=O)N(C1CC1)S(=O)(=O)c1ccccc1Cl` [compound 211] displayed a chromatographic logP of 1.94.

In turn, `Cc1nn(C)c(F)c1C(=O)N(C1CC1)S(=O)(=O)c1ccc(Cl)c(Cl)c1Cl` [compound 212] displayed a chromatographic logP of 3.35.

On to `Cc1nn(C)c(F)c1C(=O)N(C1CC1)S(=O)(=O)c1ccc(C(F)(F)F)cc1Cl` [compound 213], for which the chromatographic logP came to 3.19.

Molecule `Cn1cc(C(=O)N(C2CC2)S(=O)(=O)c2ccccc2Cl)c(I)n1` [compound 214] registered a chromatographic logP of 2.31.

`Cc1nn(C)c(C)c1C(=O)N(C1CC1)S(=O)(=O)c1ccccc1Cl` [compound 215] gave a chromatographic logP of 2.17.

For `Cc1nn(C)c(F)c1C(=O)N(C1CC1)S(=O)(=O)c1c(Cl)cccc1Cl` [compound 218], the chromatographic logP turned out to be 2.52.

For the molecule `Cc1nn(C)c(Oc2cccc(Cl)c2)c1C(=O)N(C1CC1)S(=O)(=O)c1cccc(Cl)c1` [compound 399], the chromatographic logP is 3.94.

Take `Cc1n[nH]c(C)c1C(=O)N(C1CC1)S(=O)(=O)c1ccc(C(F)(F)F)cc1` [compound 402]: the chromatographic logP came to 2.58.

In turn, `Cc1nn(C)c(Oc2cccc(Cl)c2)c1C(=O)N(C1CC1)S(=O)(=O)c1ccc(Cl)c(C(F)(F)F)c1` [compound 404] had a chromatographic logP of 4.56.

On to `Cc1nn(C)c(Oc2cccc(Cl)c2)c1C(=O)N(C1CC1)S(=O)(=O)c1ccc(Cl)c(Cl)c1` [compound 405], for which the chromatographic logP came to 4.46.

`Cc1nn(C)c(Cl)c1C(=O)N(C1CC1)S(=O)(=O)c1ccc(Cl)c(C(F)(F)F)c1` [compound 406] returned a chromatographic logP of 3.76.

`Cc1nn(C)c(Cl)c1C(=O)N(C1CC1)S(=O)(=O)c1ccc(Cl)c(Cl)c1` [compound 407] displayed a chromatographic logP of 3.63.

`Cc1n[nH]c(C)c1C(=O)N(C1CC1)S(=O)(=O)c1ccc(Cl)c(C(F)(F)F)c1` [compound 408] had a chromatographic logP of 3.

With `Cc1n[nH]c(C)c1C(=O)N(C1CC1)S(=O)(=O)c1ccc(Cl)c(Cl)c1` [compound 409], the chromatographic logP came to 2.74.

Take `Cc1nn(C)c(C)c1C(=O)N(C1CC1)S(=O)(=O)c1ccc(Cl)c(C(F)(F)F)c1` [compound 411]: the chromatographic logP turned out to be 3.37.

Molecule `Cc1nn(C)c(C)c1C(=O)N(C1CC1)S(=O)(=O)c1ccc(Cl)c(Cl)c1` [compound 412] gave a chromatographic logP of 3.21.

Molecule `Cc1nn(C)c(C)c1C(=O)N(C1CC1)S(=O)(=O)c1ccc(Cl)cc1Cl` [compound 413] returned a chromatographic logP of 2.8.

In turn, `Cc1nn(C)c(F)c1C(=O)N(C1CC1)S(=O)(=O)c1cc(Cl)sc1Cl` [compound 435] had a chromatographic logP of 3.16.

With `Cc1nn(C)c(F)c1C(=O)N(C1CC1)S(=O)(=O)c1cccnc1Cl` [compound 446], the chromatographic logP is 1.96.

`Cc1nn(C)c(F)c1C(=O)N(C1CC1)S(=O)(=O)c1cnc(Cl)c(Br)c1` [compound 447] gave a chromatographic logP of 3.08.

In turn, `CCc1onc(C(C)C)c1C(=O)N(C1CC1)S(=O)(=O)c1cccc(Cl)c1` [compound 589] returned a chromatographic logP of 4.18.

Take `CCc1onc(C(C)C)c1C(=O)N(C1CC1)S(=O)(=O)c1ccc(Cl)c(C(F)(F)F)c1` [compound 594]: the chromatographic logP is 4.82.

With `CCc1onc(C(C)C)c1C(=O)N(C1CC1)S(=O)(=O)c1ccc(Cl)c(Cl)c1` [compound 595], the chromatographic logP was found to be 4.77.

In turn, `CCc1onc(C(C)C)c1C(=O)N(C1CC1)S(=O)(=O)c1ccc(Cl)cc1Cl` [compound 596] registered a chromatographic logP of 4.41.

Regarding `Cn1nc(C(=O)N(C2CC2)S(=O)(=O)c2ccccc2Cl)n(C)c1=O` [compound 608], the chromatographic logP is 1.97.

The molecule `COCCn1c(C)c(C(=O)N(C2CC2)S(=O)(=O)c2cccc(Cl)c2)sc1=O` [compound 609] had a chromatographic logP of 2.01.

`Cc1c(C(=O)N(C2CC2)S(=O)(=O)c2cccc(Cl)c2)sc(=O)n1Cc1ccccc1` [compound 613] showed a chromatographic logP of 2.01.

In turn, `CCc1c(C(=O)N(C2CC2)S(=O)(=O)c2cccc(Cl)c2)sc(=O)n1C1CC1` [compound 615] had a chromatographic logP of 2.01.

In turn, `CC(C)c1c(C(=O)N(C2CC2)S(=O)(=O)c2cccc(Cl)c2)sc(=O)n1C1CC1` [compound 617] registered a chromatographic logP of 2.01.

On to `COCCn1c(C)c(C(=O)N(C2CC2)S(=O)(=O)c2ccc(Cl)c(C(F)(F)F)c2)sc1=O` [compound 619], for which the chromatographic logP amounted to 2.01.

On to `COCCn1c(C)c(C(=O)N(C2CC2)S(=O)(=O)c2ccc(Cl)cc2Cl)sc1=O` [compound 620], for which the chromatographic logP came to 2.01.

Turning to `Cc1c(C(=O)N(C2CC2)S(=O)(=O)c2ccc(Cl)c(C(F)(F)F)c2)sc(=O)n1C` [compound 622], the chromatographic logP was 2.01.

`Cc1c(C(=O)N(C2CC2)S(=O)(=O)c2ccc(Cl)c(Cl)c2)sc(=O)n1C` [compound 623]: the chromatographic logP stood at 2.01.

With `Cc1c(C(=O)N(C2CC2)S(=O)(=O)c2ccc(Cl)c(C(F)(F)F)c2)sc(=O)n1Cc1ccccc1` [compound 625], the chromatographic logP came to 3.01.

On to `Cc1c(C(=O)N(C2CC2)S(=O)(=O)c2ccc(Cl)c(Cl)c2)sc(=O)n1Cc1ccccc1` [compound 626], for which the chromatographic logP worked out at 3.01.

Consider `Cc1c(C(=O)N(C2CC2)S(=O)(=O)c2ccc(Cl)cc2Cl)sc(=O)n1Cc1ccccc1` [compound 627], for which the chromatographic logP is 4.03.

Consider `CCc1c(C(=O)N(C2CC2)S(=O)(=O)c2ccc(Cl)c(Cl)c2)sc(=O)n1C1CC1` [compound 630], for which the chromatographic logP was determined as 4.08.

`CCc1c(C(=O)N(C2CC2)S(=O)(=O)c2ccc(Cl)cc2Cl)sc(=O)n1C1CC1` [compound 631] yielded a chromatographic logP of 2.01.

Take `CC(C)c1c(C(=O)N(C2CC2)S(=O)(=O)c2ccc(Cl)c(C(F)(F)F)c2)sc(=O)n1C1CC1` [compound 633]: the chromatographic logP came to 3.01.

`CC(C)c1c(C(=O)N(C2CC2)S(=O)(=O)c2ccc(Cl)c(Cl)c2)sc(=O)n1C1CC1` [compound 634]: the chromatographic logP stood at 3.01.

Take `CC(C)c1c(C(=O)N(C2CC2)S(=O)(=O)c2ccc(Cl)cc2Cl)sc(=O)n1C1CC1` [compound 635]: the chromatographic logP was 2.01.

The molecule `O=C(c1cccnc1)N(C1CC1)S(=O)(=O)c1ccc(Cl)c(C(F)(F)F)c1` [compound 638] gave a chromatographic logP of 3.1.

In turn, `O=C(c1cccnc1)N(C1CC1)S(=O)(=O)c1ccc(Cl)c(Cl)c1` [compound 639] registered a chromatographic logP of 2.91.

In the case of `O=C(c1cccnc1)N(C1CC1)S(=O)(=O)c1cccc(Cl)c1` [compound 642], the chromatographic logP amounted to 2.3.

As for `O=C(c1cccnc1Cl)N(C1CC1)S(=O)(=O)c1cccc(Cl)c1` [compound 643], the chromatographic logP was 2.91.

In turn, `O=C(c1cccnc1Cl)N(C1CC1)S(=O)(=O)c1ccccc1Cl` [compound 644] returned a chromatographic logP of 2.58.

In turn, `Cc1cc(C)c(C(=O)N(C2CC2)S(=O)(=O)c2cccc(Cl)c2Cl)c(Cl)n1` [compound 650] registered a chromatographic logP of 3.57.

As to `Cc1cc(C)c(C(=O)N(C2CC2)S(=O)(=O)c2ccc(Cl)c(Cl)c2Cl)c(Cl)n1` [compound 651], the chromatographic logP stood at 4.16.

For `CC1=C(C(=O)N(C2CC2)S(=O)(=O)c2ccccc2Cl)OCCS1` [compound 652], the chromatographic logP was 2.78.

In turn, `O=C(C1=C(C(F)(F)F)OCCS1)N(C1CC1)S(=O)(=O)c1ccccc1Cl` [compound 653] registered a chromatographic logP of 3.2.

For the molecule `Cc1cc(C(=O)N(C2CC2)S(=O)(=O)c2ccccc2Cl)nc(Cl)n1` [compound 654], the chromatographic logP turned out to be 2.93.

Staying with this data set, now noted: c18 reversed-phase hplc; LogP method A: HPLC, 43°C, 0.1% aqueous phosphoric acid, acetonitrile, gradient 10% to 90% acetonitrile.
`Cc1nn(C)c(F)c1C(=O)N(C1(c2ccc(Cl)cc2)CC1)S(=O)(=O)c1cccc(Cl)c1Cl` [compound 669] came in with a chromatographic logP of 4.44.

Turning to `Cc1nn(C)c(F)c1C(=O)N(C1CC1c1ccccc1)S(=O)(=O)c1ccccc1Cl` (stereo not drawn) [compound 676], the chromatographic logP was 3.27.

(Values after patent EP2540163A1, “Nematocide N-cyclopropyl-sulfonylamide derivatives” (Bayer CropScience AG, priority 2011, dated 2013).)
